Test results taken from the supplement of paper PMC10307832.

Experiments:
Test in all cases: relative viability (nuclei count vs DMSO), 5 days (fraction); higher = more cells survive
201T = test system: 201T
Procedure, shortened: (§1)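 Lung cancer cell lines in 1536-well plates were dosed by pin tool the day after seeding, either with one drug alone or with a fixed anchor-drug dose plus five library-drug doses (not always all listed) in √10 steps. After 5 days, cells were fixed and their nuclei stained in one step (final 0.05% Triton X-100, 1% formaldehyde, 1 ug/ml Hoechst), then counted on 4× images. Relative viability is the nuclei count in treated wells divided by that in vehicle wells. Values are medians of duplicate plates.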

ABC-1 = test system: ABC-1
Procedure, shortened: as §1

BEN = test system: BEN
Procedure, shortened: as §1

CAL-12T = test system: CAL-12T
Procedure, shortened: as §1

COR-L 105 = test system: COR-L 105
Procedure, shortened: as §1

EKVX = test system: EKVX
Procedure, shortened: as §1

HARA = test system: HARA
Procedure, shortened: as §1

HCC-366 = test system: HCC-366
Procedure, shortened: as §1

LK-2 = test system: LK-2
Procedure, shortened: as §1

LOU-NH91 = test system: LOU-NH91
Procedure, shortened: as §1

NCI-H1437 = test system: NCI-H1437
Procedure, shortened: as §1

NCI-H1666 = test system: NCI-H1666
Procedure, shortened: as §1

NCI-H2009 = test system: NCI-H2009
Procedure, shortened: as §1

NCI-H3122 = test system: NCI-H3122
Procedure, shortened: as §1

NCI-H441 = test system: NCI-H441
Procedure, shortened: as §1

NCI-H460 = test system: NCI-H460
Procedure, shortened: as §1

NCI-H661 = test system: NCI-H661
Procedure, shortened: as §1

NCI-H727 = test system: NCI-H727
Procedure, shortened: as §1

PC-14 = test system: PC-14
Procedure, shortened: as §1

COc1cc2nccc(Oc3ccc(NC(=O)Nc4cc(C)on4)c(Cl)c3)c2cc1OC [Tivozanib] + C[C@]1(O)C[C@@H](c2nc(-c3ccc4ccc(-c5ccccc5)nc4c3)c3c(N)nccn32)C1 [Linsitinib] (partner 1 µM) was tested, and the relative viability (201T; first compound 0.005 µM) was 1.1, the relative viability (201T; first compound 0.01581 µM) was 0.984 and the relative viability (201T; first compound 0.05 µM) was 1.06. The relative viability (201T; first compound 0.1581 µM) was 0.937, the relative viability (201T; first compound 0.5 µM) was 1.02 and the relative viability (ABC-1; first compound 0.005 µM) was 0.716. For the same molecule, the relative viability (ABC-1; first compound 0.01581 µM) was 0.887, the relative viability (ABC-1; first compound 0.05 µM) was 0.676 and the relative viability (ABC-1; first compound 0.1581 µM) was 0.745. It also gave a relative viability (ABC-1; first compound 0.5 µM) of 0.783, a relative viability (BEN; first compound 0.005 µM) of 0.995 and a relative viability (BEN; first compound 0.01581 µM) of 0.871. The relative viability (BEN; first compound 0.05 µM) was 0.984, the relative viability (BEN; first compound 0.5 µM) was 0.912 and the relative viability (CAL-12T; first compound 0.005 µM) was 0.761. For the same molecule, the relative viability (CAL-12T; first compound 0.01581 µM) was 0.666, the relative viability (CAL-12T; first compound 0.05 µM) was 0.717 and the relative viability (CAL-12T; first compound 0.1581 µM) was 0.713. It also gave a relative viability (CAL-12T; first compound 0.5 µM) of 0.816, a relative viability (COR-L 105; first compound 0.01581 µM) of 1.25 and a relative viability (COR-L 105; first compound 0.05 µM) of 1.02. The relative viability (COR-L 105; first compound 0.1581 µM) was 1.02, the relative viability (COR-L 105; first compound 0.5 µM) was 0.904 and the relative viability (EKVX; first compound 0.005 µM) was 0.95. The relative viability (EKVX; first compound 0.01581 µM) was 0.931, the relative viability (EKVX; first compound 0.05 µM) was 1.07 and the relative viability (EKVX; first compound 0.1581 µM) was 1.07. The relative viability (EKVX; first compound 0.5 µM) was 1.09, the relative viability (HARA; first compound 0.005 µM) was 0.915 and the relative viability (HARA; first compound 0.01581 µM) was 0.838. The relative viability (HARA; first compound 0.05 µM) was 1.11, the relative viability (HARA; first compound 0.1581 µM) was 1.01 and the relative viability (HARA; first compound 0.5 µM) was 0.99. For the same molecule, the relative viability (HCC-366; first compound 0.005 µM) was 0.475, the relative viability (HCC-366; first compound 0.01581 µM) was 0.57 and the relative viability (HCC-366; first compound 0.05 µM) was 0.712. It also gave a relative viability (HCC-366; first compound 0.1581 µM) of 0.516, a relative viability (HCC-366; first compound 0.5 µM) of 0.606 and a relative viability (LK-2; first compound 0.005 µM) of 0.521. For the same molecule, the relative viability (LK-2; first compound 0.01581 µM) was 0.616, the relative viability (LK-2; first compound 0.05 µM) was 0.49 and the relative viability (LK-2; first compound 0.1581 µM) was 0.601. It also gave a relative viability (LK-2; first compound 0.5 µM) of 0.393, a relative viability (LOU-NH91; first compound 0.005 µM) of 0.934 and a relative viability (LOU-NH91; first compound 0.01581 µM) of 0.941. The relative viability (LOU-NH91; first compound 0.05 µM) was 0.981, the relative viability (LOU-NH91; first compound 0.1581 µM) was 0.933 and the relative viability (LOU-NH91; first compound 0.5 µM) was 1. For the same molecule, the relative viability (NCI-H1437; first compound 0.005 µM) was 1.02, the relative viability (NCI-H1437; first compound 0.01581 µM) was 0.989 and the relative viability (NCI-H1437; first compound 0.05 µM) was 0.969. The relative viability (NCI-H1437; first compound 0.1581 µM) was 0.947, the relative viability (NCI-H1437; first compound 0.5 µM) was 1 and the relative viability (NCI-H1666; first compound 0.005 µM) was 0.748. For the same molecule, the relative viability (NCI-H1666; first compound 0.01581 µM) was 0.856, the relative viability (NCI-H1666; first compound 0.05 µM) was 0.975 and the relative viability (NCI-H1666; first compound 0.1581 µM) was 0.783. It also gave a relative viability (NCI-H1666; first compound 0.5 µM) of 0.876, a relative viability (NCI-H2009; first compound 0.005 µM) of 1.15 and a relative viability (NCI-H2009; first compound 0.01581 µM) of 1.19. The relative viability (NCI-H2009; first compound 0.05 µM) was 1.23, the relative viability (NCI-H2009; first compound 0.1581 µM) was 1.25 and the relative viability (NCI-H2009; first compound 0.5 µM) was 1.23. It also gave a relative viability (NCI-H3122; first compound 0.005 µM) of 1.1, a relative viability (NCI-H3122; first compound 0.01581 µM) of 1.04 and a relative viability (NCI-H3122; first compound 0.05 µM) of 1. For the same molecule, the relative viability (NCI-H3122; first compound 0.1581 µM) was 1.19, the relative viability (NCI-H3122; first compound 0.5 µM) was 1.06 and the relative viability (NCI-H441; first compound 0.005 µM) was 0.588. It also gave a relative viability (NCI-H441; first compound 0.01581 µM) of 0.56, a relative viability (NCI-H441; first compound 0.05 µM) of 0.559 and a relative viability (NCI-H441; first compound 0.1581 µM) of 0.481. It also gave a relative viability (NCI-H441; first compound 0.5 µM) of 0.559, a relative viability (NCI-H460; first compound 0.005 µM) of 0.783 and a relative viability (NCI-H460; first compound 0.01581 µM) of 0.806. It also gave a relative viability (NCI-H460; first compound 0.05 µM) of 0.858, a relative viability (NCI-H460; first compound 0.1581 µM) of 0.871 and a relative viability (NCI-H460; first compound 0.5 µM) of 0.733. For the same molecule, the relative viability (NCI-H661; first compound 0.005 µM) was 0.525, the relative viability (NCI-H661; first compound 0.01581 µM) was 0.564 and the relative viability (NCI-H661; first compound 0.05 µM) was 0.498. It also gave a relative viability (NCI-H661; first compound 0.1581 µM) of 0.707, a relative viability (NCI-H661; first compound 0.5 µM) of 0.652 and a relative viability (NCI-H727; first compound 0.005 µM) of 0.304. For the same molecule, the relative viability (NCI-H727; first compound 0.01581 µM) was 0.256, the relative viability (NCI-H727; first compound 0.05 µM) was 0.244 and the relative viability (NCI-H727; first compound 0.5 µM) was 0.357. The relative viability (PC-14; first compound 0.005 µM) was 0.939, the relative viability (PC-14; first compound 0.01581 µM) was 0.957 and the relative viability (PC-14; first compound 0.05 µM) was 1.06. The relative viability (PC-14; first compound 0.1581 µM) was 1.01 and the relative viability (PC-14; first compound 0.5 µM) was 1.01.
